Paper PMC11191877, “Discovery of new Schiff bases of the disalicylic acid scaffold as DNA gyrase and topoisomerase IV inhibitors endowed with antibacterial properties” (Frontiers in Chemistry, 2024)
Converted amounts (≈) assume the structure as drawn. Blank lines part the entries; values can stand above or below the compound they belong to.

Assays:
[1] = system: Staph. aureus; assay: Modified Kirby-Bauer disc diffusion; assay type: cell-based, Staphylococcus aureus; conditions: for Inhibition zone diameter: Staph. aureus (G+)
Procedure: (§1) The antimicrobial activity of compounds 5a-k was assessed using a modified Kirby-Bauer disc diffusion method ([Alkhaldi et al., 2019]; [Al-Wahaibi et al., 2021b]; [Manso et al., 2021]; [Ecevit et al., 2022]). […] Ciprofloxacin was used as a reference medication. […] Compounds 5f-k had promising antibacterial action against Gram-positive and Gram-negative bacteria, ranging from 75% to 115% of typical ciprofloxacin levels. […]
(§2) incubated at 35-37 °C for 24-48 hours and yeast as Candida albicans (ATCC 7102) incubated at 30 °C for 24-48 hours and, then the diameters of the inhibition zones were measured in millimeters. Standard discs of ciprofloxacin (Antibacterial agent), Fluconazole (Antifungal agent) served as positive controls for antimicrobial activity but filter discs impregnated with 10 µl of solvent (distilled water, chloroform, DMSO) were used as a negative control. Blank paper disks (Schleicher & Schuell, Spain) with a diameter of 8.0 mm were impregnated 10µ of tested concentration of the stock solutions. When a filter paper disc impregnated with a tested chemical is placed on agar the chemical will diffuse from the disc into the agar. This diffusion will place the chemical in the agar only around the disc. The solubility of the chemical and its molecular size will determine the size of the area of chemical infiltration around the disc. If an organism is placed on the agar it will not grow in the area around the disc if it is susceptible to the chemical. This area of no growth around the disc is known as a “Zone of inhibition” or" Clear zone". For the disc diffusion, the zone diameters were measured with slipping calipers of the National Committee for Clinical Laboratory […]
(§3) Agar-based methods such as E-test and disk diffusion can be good alternatives because they are simpler and faster than broth-based methods. […]

[2] = system: Bacillus subtilis; assay: MIC, twofold serial dilution, 96-well microtiter plate; assay type: cell-based; conditions: Bacillus subtilis (G+); read-out: Minimum inhibitory concentration (MIC)
Procedure: (§4) The antibacterial activity of compounds 5f, 5h, 5i, and 5k were evaluated using a twofold serial dilution method ([Parasa et al., 2011]), with ciprofloxacin as the reference compound. The MIC values for certain compounds were obtained through dose-response experiments. The stated values are based on a minimum of two independent experiments, with three replicates per concentration in each experiment. The experimental details can be found in Appendix A (Supplementary Material). […]
(§5) 4.2.2. Minimum inhibitory concentration assay
(§6) In 96-well microtiter plates and […] of fresh bacterial culture of a single McFarland unit overnight, a double serial dilution of each compound […] in sterile standard saline were prepared to every single source well. Ciprofloxacin antibiotic (5 mg / mL - 1) and normal saline were included as standard reference in each assay. The plates were incubated at 37 0C overnight. As an indicator of bacterial growth, […] of p-iodonitrotetrazolium violet (INT) was added to each well and incubated at 37 0C for 30 […]
(§7) min. MIC values are recorded as the lowest concentration of the extract that completely inhibited bacterial growth that is clear well. The colorless tetrazolidium salt acts as an electron accepter and is reduced to a red colored formazan product by biological activity organisms. Where bacterial growth was inhibited, the solution in the well remained clear after incubation with INT. […]
(§8) SybrGOLD in T10 buffer (10 mM Tris HCl with pH 8.0 and 1 mM EDTA) was added. […]

[3] = system: Staphylococcus aureus; assay: as above; assay type: cell-based; conditions: Staphylococcus aureus (G+); read-out: Minimum inhibitory concentration (MIC)
Procedure: as §4, §5, §6, §7, §8

[4] = system: Pseudomonas aeruginosa; assay: as above; assay type: cell-based; conditions: Pseudomonas aeruginosa (G−); read-out: Minimum inhibitory concentration (MIC)
Procedure: as §4, §5, §6, §7, §8

[5] = system: Escherichia Coli; assay: as above; assay type: cell-based; conditions: Escherichia coli (G−); read-out: Minimum inhibitory concentration (MIC)
Procedure: as §4, §5, §6, §7, §8

[6] = system: Bacillus subtilis; assay: Modified Kirby-Bauer disc diffusion; assay type: cell-based; conditions: Bacillus subtilis (G+)
Procedure: as §1, §2, §3

[7] = system: Pseudomonas aeruginosa; assay: Modified Kirby-Bauer disc diffusion; assay type: cell-based; conditions: Pseudomonas aeruginosa (G−)
Procedure: as §1, §2, §3

[8] = system: Escherichia Coli; assay: Modified Kirby-Bauer disc diffusion; assay type: cell-based; conditions: Escherichia Coli (G−)
Procedure: as §1, §2, §3

[9] = system: Aspergillus flavus; assay: Modified Kirby-Bauer disc diffusion (antifungal); assay type: cell-based; conditions: Aspergillus flavus (fungi)
Procedure: (§9) The antimicrobial activity of compounds 5a-k was assessed using a modified Kirby-Bauer disc diffusion method ([Alkhaldi et al., 2019]; [Al-Wahaibi et al., 2021b]; [Manso et al., 2021]; [Ecevit et al., 2022]). […] Ciprofloxacin was used as a reference medication. […] Compounds 5f-k had promising antibacterial action against Gram-positive and Gram-negative bacteria, ranging from 75% to 115% of typical ciprofloxacin levels.
(§10) In addition, the synthesized compounds 5a-k were evaluated for their antifungal activity against A. flavus and C. albicans, with Fluconazole as a reference medication (Table 1). […]
Standard discs of ciprofloxacin (Antibacterial agent), Fluconazole (Antifungal agent) served as positive controls for antimicrobial activity but filter discs impregnated with 10 µl of solvent (distilled water, chloroform, DMSO) were used as a negative control. Blank paper disks (Schleicher & Schuell, Spain) with a diameter of 8.0 mm were impregnated 10µ of tested concentration of the stock solutions. When a filter paper disc impregnated with a tested chemical is placed on agar the chemical will diffuse from the disc into the agar. This diffusion will place the chemical in the agar only around the disc. The solubility of the chemical and its molecular size will determine the size of the area of chemical infiltration around the disc. If an organism is placed on the agar it will not grow in the area around the disc if it is susceptible to the chemical. This area of no growth around the disc is known as a “Zone of inhibition” or" Clear zone". For the disc diffusion, the zone diameters were measured with slipping calipers of the National Committee for Clinical Laboratory […]
as §3

[10] = system: Candida albicans; assay: Modified Kirby-Bauer disc diffusion (antifungal); assay type: cell-based; conditions: Candida albicans (fungi)
Procedure: as §9, §10, §2, §3

[11] = system: mycobacterium; set-up: method as in Abdu-Allah et al., 2017; conditions: nutrition starvation paradigm, 10 μg/mL; ref Abdu-Allah et al., 2017; cited from earlier work
[12] = system: M. tuberculosis H37Rv; set-up: method as in Abdu-Allah et al., 2017; conditions: ref Abdu-Allah et al., 2017; cited from earlier work
[13] = system: E. Coli; set-up: method as in Shi et al., 2007; conditions: ref Shi et al., 2007; cited from earlier work
[14] = system: B. subtilis; set-up: method as in Shi et al., 2007; conditions: ref Shi et al., 2007; cited from earlier work
[15] = system: P. fluorescence; set-up: method as in Shi et al., 2007; conditions: ref Shi et al., 2007; cited from earlier work
[16] = system: E. coli b-Ketoacyl-acyl carrier protein synthase III (ecKAS III); set-up: method as in Cheng et al., 2010; conditions: ref Cheng et al., 2010; cited from earlier work
[17] = system: DNA methyltransferases (DNMTs); set-up: method as in Leroy et al., 2019; conditions: ref Leroy et al., 2019; cited from earlier work
[18] = molecular target: S. aureus topoisomerase IV; conditions: read-out: IC50 S. aureus topoisomerase IV; internal standard value stated in the supplementary method; cited from earlier work
[19] = system: Gram-positive and Gram-negative bacteria; assay: Disc diffusion, activity relative to ciprofloxacin over the bacterial panel; assay type: cell-based; conditions: Gram-negative strains
Procedure: as §1
incubated at 35-37 °C for 24-48 hours and yeast as Candida albicans (ATCC 7102) incubated at 30 °C for 24-48 hours and, then the diameters of the inhibition zones were measured in millimeters. Standard discs of ciprofloxacin (Antibacterial agent), Fluconazole (Antifungal agent) served as positive controls for antimicrobial activity but filter discs impregnated with 10 µl of solvent (distilled water, chloroform, DMSO) were used as a negative control. Blank paper disks (Schleicher & Schuell, Spain) with a diameter of 8.0 mm were impregnated 10µ of tested concentration of the stock solutions. When a filter paper disc impregnated with a tested chemical is placed on agar the chemical will diffuse from the disc into the agar. This diffusion will place the chemical in the agar only around the disc. […] For the disc diffusion, the zone diameters were measured with slipping calipers of the National Committee for Clinical Laboratory […]

MIC [2]: 0.01 mg/L (≈ 0.0302 µM)
MIC [3]: 0.03 mg/L (≈ 0.0905 µM)
MIC [4]: 0.06 mg/L (≈ 0.181 µM)
MIC [5]: 0.06 mg/L (≈ 0.181 µM)
Compound: O=C(O)c1cn(C2CC2)c2cc(N3CCNCC3)c(F)cc2c1=O [Ciprofloxacin, reference compound]
Inhibition zone diameter [1]: 40 mm/mg Sample
Inhibition zone diameter [6]: 40 mm/mg Sample
Inhibition zone diameter [7]: 40 mm/mg Sample
Inhibition zone diameter [8]: 40 mm/mg Sample

Compound: OC(Cn1cncn1)(Cn1cncn1)c1ccc(F)cc1F [Fluconazole, reference compound]
Inhibition zone diameter [9]: 40 mm/mg Sample
Inhibition zone diameter [10]: 40 mm/mg Sample

Compound: O=C(N/N=C1\C(=O)N(Cc2ccc(Cl)cc2)c2ccccc21)c1cc(-n2cc(-c3ccccc3)nn2)ccc1O [III]
reduction of bacterial count [11]: 2.4 logs
MIC [12]: 0.39 mg/L (≈ 0.71 µM)

Compound: CC(C/N=C/c1cc(Cl)ccc1O)C/N=C/c1cc(Cl)ccc1O [II]
MIC [13]: 4.9 mg/L (≈ 13.4 µM)
MIC [14]: 1.8 mg/L (≈ 4.93 µM)
MIC [15]: 3.6 mg/L (≈ 9.86 µM)

Compound: CC(CNC(=O)c1ccccc1O)/N=C/c1cc(Cl)cc(Cl)c1O (centres unmarked) [IV]
inhibitory activity against ecKAS III [16]: potent inhibitory activity

Compound: NC[C@H]1O[C@H](O[C@H]2[C@H](O)[C@@H](O[C@H]3O[C@H](CO)[C@@H](O)[C@H](N)[C@H]3O)[C@H](N)C[C@@H]2N)[C@H](O)[C@@H](O)[C@@H]1O [Kanamycin]
MIC [13]: 3.9 mg/L (≈ 8.05 µM)
MIC [14]: 0.39 mg/L (≈ 0.805 µM)
MIC [15]: 3.9 mg/L (≈ 8.05 µM)

Compound: O=C(O)c1cc(Cc2ccc(O)c(C(=O)O)c2)ccc1O [NSC 14778, disalicylic acid methylene]
inhibitory activity on DNMTs [17]: within the micromolar range

Compound: CO[C@@H]1[C@@H](OC(N)=O)[C@@H](O)[C@H](Oc2ccc3c(O)c(NC(=O)c4ccc(O)c(CC=C(C)C)c4)c(=O)oc3c2C)OC1(C)C [Novobiocin]
IC50 [18]: 26.7 µM

Compound: N'-((E)-2-Chlorobenzylidene)-4-(4-(2-((Z)-2-chlorobenzylidene)hydrazine-1-carbonyl)-3-hydroxybenzyl)-2-hydroxybenzohydrazide [Compound 5e]
Inhibition zone diameter [1]: 30 mm/mg Sample
Inhibition zone diameter [6]: 27 mm/mg Sample
Inhibition zone diameter [7]: 28 mm/mg Sample
Inhibition zone diameter [8]: 28 mm/mg Sample
Inhibition zone diameter [9]: 0.0 mm/mg Sample
Inhibition zone diameter [10]: 12 mm/mg Sample

Compound: N'-((E)-3-Chlorobenzylidene)-4-(4-(2-((Z)-3-chlorobenzylidene)hydrazine-1-carbonyl)-3-hydroxybenzyl)-2-hydroxybenzohydrazide [Compound 5g]
activity of ciprofloxacin [19]: 75%
activity compared to ciprofloxacin ([1]; S. aureus): 88%
Inhibition zone diameter [1]: 35 mm/mg Sample
Inhibition zone diameter [6]: 33 mm/mg Sample
Inhibition zone diameter [7]: 30 mm/mg Sample
Inhibition zone diameter [8]: 30 mm/mg Sample
Inhibition zone diameter [9]: 0.0 mm/mg Sample
Inhibition zone diameter [10]: 0.0 mm/mg Sample

Compound: N'-((E)-4-Bromobenzylidene)-4-(4-(2-((Z)-4-bromobenzylidene)hydrazine-1-carbonyl)-3-hydroxybenzyl)-2-hydroxybenzohydrazide [Compound 5d]
Inhibition zone diameter [1]: 31 mm/mg Sample
Inhibition zone diameter [6]: 28 mm/mg Sample
Inhibition zone diameter [7]: 26 mm/mg Sample
Inhibition zone diameter [8]: 30 mm/mg Sample
Inhibition zone diameter [9]: 0.0 mm/mg Sample
Inhibition zone diameter [10]: 10 mm/mg Sample

Compound: N'-((E)-4-Chlorobenzylidene)-4-(4-(2-((Z)-4-chlorobenzylidene)hydrazine-1-carbonyl)-3-hydroxybenzyl)-2-hydroxybenzohydrazide [Compound 5b]
Inhibition zone diameter [1]: 27 mm/mg Sample
Inhibition zone diameter [6]: 26 mm/mg Sample
Inhibition zone diameter [7]: 26 mm/mg Sample
Inhibition zone diameter [8]: 26 mm/mg Sample
Inhibition zone diameter [9]: 0.0 mm/mg Sample
Inhibition zone diameter [10]: 7 mm/mg Sample

Compound: N'-((E)-4-Methoxybenzylidene)-4-(4-(2-((Z)-4-methoxybenzylidene)hydrazine-1-carbonyl)-3-hydroxybenzyl)-2-hydroxybenzohydrazide [Compound 5j]
Inhibition zone diameter [1]: 33 mm/mg Sample
Inhibition zone diameter [6]: 31 mm/mg Sample
Inhibition zone diameter [7]: 30 mm/mg Sample
Inhibition zone diameter [8]: 30 mm/mg Sample
Inhibition zone diameter [9]: 0.0 mm/mg Sample
Inhibition zone diameter [10]: 0.0 mm/mg Sample

Compound: N'-((E)-4-Nitrobenzylidene)-4-(4-(2-((Z)-4-nitrobenzylidene)hydrazine-1-carbonyl)-3-hydroxybenzyl)-2-hydroxybenzohydrazide [Compound 5c]
Inhibition zone diameter [1]: 27 mm/mg Sample
Inhibition zone diameter [6]: 26 mm/mg Sample
Inhibition zone diameter [7]: 25 mm/mg Sample
Inhibition zone diameter [8]: 27 mm/mg Sample
Inhibition zone diameter [9]: 0.0 mm/mg Sample
Inhibition zone diameter [10]: 11 mm/mg Sample

Compound: N'-((E)-Benzylidene)-4-(4-(2-((Z)-benzylidene)hydrazine-1-carbonyl)-3-hydroxy benzyl)-2-hydroxybenzohydrazide [Compound 5a]
Inhibition zone diameter [1]: 25 mm/mg Sample
Inhibition zone diameter [6]: 21 mm/mg Sample
Inhibition zone diameter [7]: 21 mm/mg Sample
Inhibition zone diameter [8]: 24 mm/mg Sample
Inhibition zone diameter [9]: 0.0 mm/mg Sample
Inhibition zone diameter [10]: 0.0 mm/mg Sample
